Assay results as given in patent US20060074066A1, “Use of an inhibitor of cathepsin-S or -B to treat or prevent chronic obstructive pulmonary disease” (Yale University, priority 2003, published 2006).
“Also recorded” adds a separate entry of the source. Peptide text beside a SMILES is read from it. * marks the point of attachment. Cbz = O=C(OCc1ccccc1)*; CH2F = FC*

Tests used:
Format in all cases: in vivo
[1] = tested on: IFN-γ-induced apoptosis; assay: TUNEL evaluation of IFN-γ-induced lung cell apoptosis in transgenic mice; settings: transgene (+) mice on dox; for effect on IFN-γ-induced apoptosis (in words): treated vs vehicle control, 14150 10 mg/kg/day by gavage, CA074 10 mg/Kg/day I.P., leupeptin 15 mg/kg I.P.
Description: (§1) CC10-rtTA-IFN-γ mice that had been generated in our laboratory and bred for at least 10 generations onto a Balb/c background were used in these studies. These are dual transgene positive animals in which the reverse tetracycline transactivator (rtTA) drives the expression of the murine IFN-γ gene in a lung-specific and externally regulatable fashion. The transgene in these mice is activated by adding doxycycline (dox) to the animal's drinking water. These mice were maintained as dual transgene (+) heterozygotes (refered to as transgene (+) hereafter).
(§2) CC10-rtTA-IFN-γ mice and littermate controls were maintained on normal water until they were 4-6 weeks old.
End labeling of exposed 3′-OH ends of DNA fragments in paraffin embedded tissue was undertaken with the TUNEL in situ cell death detection kit AP (Roche Diagnostics, CA, USA) using the instructions provided by the manufacturer. After staining, 20 fields of alveoli were randomly chosen and 2000 nuclei were counted. The labeled cells were expressed as percentage of total nuclei.

[2] = tested on: CC10-rtTA-IFN-γ mice; assay: IFN-γ-induced emphysema (lung volume, chord length, alveolar histology, compliance) in transgenic mice; settings: transgene (+) mice on dox, treated vs vehicle control
Description: as §1, §2
(§3) Animals were sacrificed via cervical dislocation, a median stemotomy was performed, and right heart perfusion was accomplished with calcium- and magnesium-free PBS to clear the pulmonary intravascular space. The lungs were then fixed to pressure (25 cm) with neutral buffered 10% formalin, fixed overnight in 10% formalin, embedded in paraffm, sectioned at 5 μm and stained. Hematoxylin and eosin (H&E) stains were performed in the Research Histology Laboratory of the Department of Pathology at Yale University School of Medicine.
In brief, the trachea was cannulated, the lungs were degassed and the lungs and heart were removed en bloc and inflated with PBS at 25 cm of pressure. The size of the lung was evaluated via volume displacement. Compliance was calculated as the change in volume divided by the change in pressure.

[3] = tested on: CC10-rtTA-IFN-γ mice; assay: IFN-γ-induced BAL cell recovery and tissue inflammation; settings: transgene (+) mice on dox for 2 weeks
Description: Mice were euthanized, the trachea was isolated by blunt dissection, and tubing was secured in the airway. Two volumes of 1 mL of PBS with 0.1% BSA were then instilled and gently aspirated and pooled. Each BAL fluid sample was centriged, and the supernatants were stored in −70° C. until used. The levels of IFN-γ were determined using a commercial ELISA (R&D Systems Inc., Minneapolis, Minn., USA) as per the manufacturer's instructions.
as §3

[4] = tested on: cathepsins B, S, and H and MMPs-2, 9, 12 and 14; assay: Lung mRNA encoding cathepsins and MMPs (RT-PCR, real-time RT-PCR); settings: transgene (+) mice on dox for 2 weeks

Which “effect on IFN-γ-induced apoptosis (in words)” value [1] does the source give for `CCCNC(=O)[C@H]1O[C@@H]1C(=O)N[C@H](C(=O)N1CCC[C@H]1C(=O)O)[C@@H](C)CC` (relative stereo) [CA074, N-(L-3-trans-propylcarbamoyl-oxirane-2-carbonyl)-L-isoleucyl-L-proline] here?
The value was “significant decreases”.

What about the “effect on IFN-γ-induced emphysema (lung volume, chord length, histology, compliance; in words)” value [2] of the same molecule?
The value was “significant decreases”.

How did the “decrease of the levels of IFN-γ-induced apoptosis” value ([1]; Z-VAD-fmk 3 μg/kg/day I.P. vs vehicle control) turn out when `COC(=O)C[C@H](NC(=O)[C@H](C)NC(=O)[C@@H](NC(=O)OCc1ccccc1)C(C)C)C(=O)CF` [Z-VAD-fmk] (Cbz-Val-Ala-Asp(OMe)-CH2F) was run?
The value was ≥ 85%.

What about the “effect on IFN-γ-induced emphysema (lung volume, chord length, histology, compliance; in words)” value [2] of the same molecule?
The value was “decreased the emphysema generating effects of IFN-γ; also recorded: only partially abrogated”.

What about the “IFN-γ-induced BAL total cell, neutrophil, lymphocyte and macrophage alterations and tissue inflammation” value [3] of the same molecule?
The value was “markedly ameliorated”.

And the “IFN-γ-induced increase in mRNA encoding cathepsin B, cathepsin S and MMPs-2 and -14” value [4]?
The value was “markedly ameliorated”.

What about the “levels of mRNA encoding cathepsin H and MMPs-9 and -12” value [4] of the same molecule?
Its value is “not similarly altered”.

How did the “effect on IFN-γ-induced apoptosis (in words)” value [1] turn out when `CC[C@H](NC(=O)[C@H](CS(=O)(=O)CC(C)C)NC(=O)N1CCOCC1)C(=O)c1nc2ccccc2o1` [compound 14150] was run?
The value was “significant decreases; also recorded: significantly inhibited”.

And the “effect on IFN-γ-induced emphysema (lung volume, chord length, histology, compliance; in words)” value [2]?
Its value is “significant decreases; also recorded: significantly inhibited”.

What does the source list for `CC(=O)N[C@@H](CC(C)C)C(=O)N[C@@H](CC(C)C)C(=O)N[C@H](C=O)CCCNC(=N)N` [leupeptin]?
IFN-γ-induced increase in mRNA encoding cathepsin B, cathepsin S and MMPs-2 and -14 [4]: decreased; MMP-9 mRNA induction by IFN-γ [4]: leupeptin-dependent
